Patent US20250164463A1, “SCREENING METHOD AND THERAPEUTIC AGENT FOR MENTAL DISORDER” (Fujita Health University, priority 2022, published 2025)

Columns and labels:
[1] = tested on: myelin sheath marker (MAG) in prefrontal cortexes of mice after alcohol intake and alcohol abstinence; assay: Immunohistochemical staining of prefrontal cortex with myelin sheath marker (MAG), myelin sheath formation enhancing effect; assay type: in vivo; details: clemastine 10 mg/kg orally every day after end of EtOH administration, ImageJ, FIG. 8(b), 8(c)
Experimental: Mice (4 mice for each group) were administered EtOH in the same manner as in Examples 1 and 2. Control mice (4 mice for each group) were orally administered sterile water in the same amount as that in the mice administered EtOH. […] Frozen slices of prefrontal cortexes and hippocampuses of the mice prepared were heated in a 10 mM citrate buffer solution (pH 6.0) with a microwave oven for 5 minutes. After washed with PBS, the slices were subjected to blocking with 5% normal horse serum (Cat #S-2000, Vector Laboratories, Inc., Burlingame, CA, USA) in PBST for 1 hour. After that, the slices were caused to react with one of primary antibodies at 4° C. overnight. After washed with PBST, the slices were caused to react with a secondary antibody (1:2,000) at room temperature for 3 hours. The primary antibodies used were a mouse anti-CC1 antibody (1:500; Cat #MABF850, Millipore) and a goat anti-PDGFRα antibody (1:200; Cat #AF1062, R&D Systems Inc.)

[2] = tested on: mice after alcohol intake and alcohol abstinence; assay: Novelty suppressed feeding test (NSF) in mice after alcohol intake and alcohol abstinence; assay type: in vivo, C57BL/6J mice; details: clemastine 10 mg/kg orally every day from end of EtOH administration to final day of behavioral tests; EtOH+clemastine group vs EtOH group; FIG. 5(b)
Experimental: (§1) Male C57BL/6J mice at the age of 4 weeks (P28) were used. The mice were accommodated in a plastic cage and maintained at a light-dark cycle of 12 hours (lighting at 8:00 A.M.) with ad libitum access to feed and water.
(§2) Sixteen mice were orally administered EtOH (3.0 g/kg; diluted to 25% with sterile water) intermittently from P28 to P45 for 10 days in total (once a day) according to the schedule of FIG. 1(a). Sixteen control mice were orally administered sterile water in the same amount as that in the mice administered EtOH.
(§3) All the behavioral experiments were performed between 10:00 A.M. and 6:00 P.M. To obtain an indicator of sociality, a social interaction test was conducted. To obtain an indicator of anxiety behavior, a marble-burying behavior test and a novelty suppressed feeding test were conducted. To obtain an indicator of cognitive function, a novel object recognition test was conducted. To reduce influences from previous experiments, the social interaction test, the marble-burying behavior test, the novelty suppressed feeding test, and the novel object recognition test were conducted in the stated order. […]
The novelty suppressed feeding test was conducted by a method in conformity with a previous report (Lu Q et al., Behav Brain Res. 2019 Oct. 17; 372: 112053). […] A latency time taken for feed intake was recorded. […]

[3] = tested on: mice after alcohol intake and alcohol abstinence; assay: Social interaction test (SIT) in mice after alcohol intake and alcohol abstinence; assay type: in vivo, C57BL/6J mice; details: clemastine 10 mg/kg orally every day from end of EtOH administration to final day of behavioral tests; EtOH+clemastine group vs EtOH group; FIG. 5(b)
Experimental: as §1, §2
All the behavioral experiments were performed between 10:00 A.M. and 6:00 P.M. To obtain an indicator of sociality, a social interaction test was conducted. To obtain an indicator of anxiety behavior, a marble-burying behavior test and a novelty suppressed feeding test were conducted. To obtain an indicator of cognitive function, a novel object recognition test was conducted. […]
The social interaction test was conducted by a method in conformity with a previous report (Mouri A et al., J Neurosci. 2012 Mar. 28; 32(13): 4562-80). […] A time length of a social interaction (e.g., smelling each other, grooming each other, pursuing, mounting, or crawling) was recorded. […]

[4] = tested on: mice after alcohol intake and alcohol abstinence; assay: Marble-burying behavior test (MB) in mice after alcohol intake and alcohol abstinence; assay type: in vivo, C57BL/6J mice; details: clemastine 10 mg/kg orally every day from end of EtOH administration to final day of behavioral tests; EtOH+clemastine group vs EtOH group; FIG. 5(b)
Experimental: as §1, §2, §3
The marble-burying behavior test was conducted by a method in conformity with a previous report (Alkam T et al., Behav Brain Res. 2013 Feb. 15; 239: 80-9). […] When ⅔ of the surface area of a marble was covered with the sawdust, the marble was counted as being buried. […]

CN1CCC[C@@H]1CCO[C@](C)(c1ccccc1)c1ccc(Cl)cc1 [clemastine]
significantly remitted: myelin sheath abnormality in the prefrontal cortexes (MAG signal intensity) [1] | anxiety-like behavior (novelty suppressed feeding test) [2] | social interaction reduction (social interaction test) [3] | anxiety-like behavior (marble-burying behavior test) [4]
